A short description of this series: solubility in aqueous phase. The settings on record: water, 25° C. In kind it is physicochemical. The source says:
By having an aromatic-like, heterocyclic triazine nucleus, it is believed to impart a network structure into the protein during tanning, giving better thermal stability.

Values after ≈ are worked out from the molar mass of the structure shown.

In general, solubility refers to the dissolved amount per volume that the medium holds. As to `O=c1n(CC2CO2)c(=O)n(CC2CO2)c(=O)n1CC1CO1` (stereo not shown) [TGIC, trigycidyl isocyanurate], the solubility was 10000 µg/mL (≈ 33.6 mM).

For the origin of these results see patent US20090300848A1, “EPOXIDE-BASED TANNAGE SYSTEM” (BLC LEATHER TECHNOLOGY CENTRE LTD, priority 2006, published 2009).
